Reference: the supplement of paper PMC10627819

Key:
[1] = test system: S. pneumoniae D39V; experiment: Bliss interaction score (quartile over a dose matrix) (fitness difference); higher = more antagonism (negative = synergy)
Summary of the method: (§1)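 The Bliss score subtracts expected fitness, the product of the single-drug fitness values, from observed fitness. Fitness is plate-normalised OD595 at entry into stationary phase, relative to the robust no-drug mean and capped at 1, with single-drug fitness inferred from combinations. Summaries are quartiles over technical, biological and donor/recipient replicates.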

[2] = test system: S. aureus Newman; experiment: as above
Summary of the method: as §1

[3] = test system: B. subtilis 168; experiment: as above
Summary of the method: as §1

[4] = test system: S. aureus DSM 20231; experiment: as above
Summary of the method: as §1

[5] = test system: S. pneumoniae D39V; experiment: fitness (endpoint OD595 vs no drug) (fraction); higher = more growth
Summary of the method: (§2)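 With the first reading as background, OD595 was measured every 30 min for 14 h in 384-well plates kept at 37 °C and inoculated at OD595 0.01. TSB, LB Lennox or CY was the medium. Fitness is the optical density at the transition into stationary phase divided by the robust mean of no-drug control wells, with a cap of 1.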

[6] = test system: B. subtilis 168; experiment: as above
Summary of the method: as §2

[7] = test system: S. aureus DSM 20231; experiment: as above
Summary of the method: as §2

[8] = first compound 1.562 µg/mL, partner 0.1 µg/mL
[9] = first compound 1.562 µg/mL, partner 0.2 µg/mL
[10] = first compound 1.562 µg/mL, partner 0.4 µg/mL
[11] = first compound 3.124 µg/mL, partner 0.1 µg/mL
[12] = first compound 3.124 µg/mL, partner 0.2 µg/mL
[13] = first compound 3.124 µg/mL, partner 0.4 µg/mL
[14] = first compound 1.562 µg/mL, partner 0.125 µg/mL
[15] = first compound 1.562 µg/mL, partner 0.25 µg/mL
[16] = first compound 1.562 µg/mL, partner 0.5 µg/mL
[17] = first compound 3.124 µg/mL, partner 0.125 µg/mL
[18] = first compound 3.124 µg/mL, partner 0.25 µg/mL
[19] = first compound 3.124 µg/mL, partner 0.5 µg/mL
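Wherever Bliss interaction score (quartile over a dose matrix) is given: first quartile when negative (synergy) and third quartile when positive (antagonism).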

Compound `C[C@@H]1O[C@@H]1P(=O)(O)O` [Fosfomycin] + CCC[C@@H]1C[C@@H](C(=O)N[C@@H]([C@H]2O[C@H](SC)[C@H](O)[C@@H](O)[C@H]2O)[C@@H](C)O)N(C)C1 [Lincomycin] has a Bliss interaction score [1] of 0.0737, a Bliss interaction score [2] of -0.31 and a Bliss interaction score [3] of 0.0718. For the same compound, the Bliss interaction score [4] was -0.158, the fitness ([5]; first compound 1.25 µg/mL, partner 0.2 µg/mL) was 0.606 and the fitness ([5]; first compound 1.25 µg/mL, partner 0.215 µg/mL) was 0.812. The fitness ([5]; first compound 1.25 µg/mL, partner 0.4 µg/mL) was 0.365, the fitness ([5]; first compound 1.25 µg/mL, partner 0.43 µg/mL) was 0.698 and the fitness ([5]; first compound 1.25 µg/mL, partner 0.8 µg/mL) was 0.0632. It also gave a fitness ([5]; first compound 1.25 µg/mL, partner 0.86 µg/mL) of 0.499, a fitness ([5]; first compound 2.5 µg/mL, partner 0.2 µg/mL) of 0.58 and a fitness ([5]; first compound 2.5 µg/mL, partner 0.215 µg/mL) of 0.823. For the same compound, the fitness ([5]; first compound 2.5 µg/mL, partner 0.4 µg/mL) was 0.317, the fitness ([5]; first compound 2.5 µg/mL, partner 0.43 µg/mL) was 0.683 and the fitness ([5]; first compound 2.5 µg/mL, partner 0.8 µg/mL) was 0.0611. The fitness ([5]; first compound 2.5 µg/mL, partner 0.86 µg/mL) was 0.45, the fitness ([5]; first compound 5 µg/mL, partner 0.2 µg/mL) was 0.511 and the fitness ([5]; first compound 5 µg/mL, partner 0.215 µg/mL) was 0.785. For the same compound, the fitness ([5]; first compound 5 µg/mL, partner 0.4 µg/mL) was 0.285, the fitness ([5]; first compound 5 µg/mL, partner 0.43 µg/mL) was 0.691 and the fitness ([5]; first compound 5 µg/mL, partner 0.8 µg/mL) was 0.0462. For the same compound, the fitness ([5]; first compound 5 µg/mL, partner 0.86 µg/mL) was 0.394, the fitness [6, 8] was 0.689 and the fitness [6, 9] was 0.707. It also gave a fitness [6, 10] of 0.705, a fitness ([6]; first compound 1.562 µg/mL, partner 0.8 µg/mL, one replicate) of 0.719 and a fitness ([6]; first compound 1.562 µg/mL, partner 1.6 µg/mL, one replicate) of 0.695. For the same compound, the fitness [6, 11] was 0.616, the fitness [6, 12] was 0.591 and the fitness [6, 13] was 0.61. It also gave a fitness ([6]; first compound 3.124 µg/mL, partner 0.8 µg/mL, one replicate) of 0.572, a fitness ([6]; first compound 3.124 µg/mL, partner 1.6 µg/mL, one replicate) of 0.537 and a fitness ([6]; first compound 6.248 µg/mL, partner 0.1 µg/mL) of 0.469. It also gave a fitness ([6]; first compound 6.248 µg/mL, partner 0.2 µg/mL) of 0.429, a fitness ([6]; first compound 6.248 µg/mL, partner 0.4 µg/mL) of 0.476 and a fitness ([6]; first compound 6.248 µg/mL, partner 0.8 µg/mL, one replicate) of 0.466. The fitness ([6]; first compound 6.248 µg/mL, partner 1.6 µg/mL, one replicate) was 0.436, the fitness ([7]; first compound 0.781 µg/mL, partner 0.1 µg/mL) was 0.645 and the fitness ([7]; first compound 0.781 µg/mL, partner 0.2 µg/mL) was 0.508. The fitness ([7]; first compound 0.781 µg/mL, partner 0.4 µg/mL) was 0.137, the fitness [7, 8] was 0.515 and the fitness [7, 9] was 0.32. The fitness [7, 10] was 0.0482, the fitness [7, 11] was 0.387 and the fitness [7, 12] was 0.0895. For the same compound, the fitness [7, 13] was 0.0388.

Compound `C[C@@H]1O[C@@H]1P(=O)(O)O` [Fosfomycin] + COc1cc(Cc2cnc(N)nc2N)cc(OC)c1OC [Trimethoprim] has a Bliss interaction score [1] of 0.158, a Bliss interaction score [2] of 0.0927 and a Bliss interaction score [3] of -0.112. It also gave a Bliss interaction score [4] of 0.0599, a fitness ([6]; first compound 1.562 µg/mL, partner 0.1 µg/mL, one replicate) of 0.649 and a fitness [6, 14] of 0.572. The fitness ([6]; first compound 1.562 µg/mL, partner 0.2 µg/mL, one replicate) was 0.564, the fitness [6, 15] was 0.405 and the fitness ([6]; first compound 1.562 µg/mL, partner 0.4 µg/mL, one replicate) was 0.397. The fitness [6, 16] was 0.35, the fitness ([6]; first compound 1.562 µg/mL, partner 1 µg/mL, one replicate) was 0.17 and the fitness ([6]; first compound 1.562 µg/mL, partner 2 µg/mL, one replicate) was 0.119. For the same compound, the fitness ([6]; first compound 3.124 µg/mL, partner 0.1 µg/mL, one replicate) was 0.497, the fitness [6, 17] was 0.447 and the fitness ([6]; first compound 3.124 µg/mL, partner 0.2 µg/mL, one replicate) was 0.35. It also gave a fitness [6, 18] of 0.369, a fitness ([6]; first compound 3.124 µg/mL, partner 0.4 µg/mL, one replicate) of 0.18 and a fitness [6, 19] of 0.218. For the same compound, the fitness ([6]; first compound 3.124 µg/mL, partner 1 µg/mL, one replicate) was 0.0628, the fitness ([6]; first compound 3.124 µg/mL, partner 2 µg/mL, one replicate) was 0.0617 and the fitness ([6]; first compound 6.248 µg/mL, partner 0.1 µg/mL, one replicate) was 0.209. It also gave a fitness ([6]; first compound 6.248 µg/mL, partner 0.125 µg/mL) of 0.307, a fitness ([6]; first compound 6.248 µg/mL, partner 0.2 µg/mL, one replicate) of 0.101 and a fitness ([6]; first compound 6.248 µg/mL, partner 0.25 µg/mL) of 0.236. It also gave a fitness ([6]; first compound 6.248 µg/mL, partner 0.4 µg/mL, one replicate) of 0.0381, a fitness ([6]; first compound 6.248 µg/mL, partner 0.5 µg/mL) of 0.0904 and a fitness ([6]; first compound 6.248 µg/mL, partner 1 µg/mL, one replicate) of 0.0277. For the same compound, the fitness ([6]; first compound 6.248 µg/mL, partner 2 µg/mL, one replicate) was 0.0228, the fitness ([7]; first compound 0.781 µg/mL, partner 0.125 µg/mL) was 0.592 and the fitness ([7]; first compound 0.781 µg/mL, partner 0.25 µg/mL) was 0.56. The fitness ([7]; first compound 0.781 µg/mL, partner 0.5 µg/mL) was 0.182, the fitness ([7]; first compound 0.781 µg/mL, partner 1 µg/mL) was 0.0323 and the fitness [7, 14] was 0.56. The fitness [7, 15] was 0.484, the fitness [7, 16] was 0.106 and the fitness ([7]; first compound 1.562 µg/mL, partner 1 µg/mL) was 0.0286. For the same compound, the fitness [7, 17] was 0.499, the fitness [7, 18] was 0.327 and the fitness [7, 19] was 0.0645. It also gave a fitness ([7]; first compound 3.124 µg/mL, partner 1 µg/mL) of 0.0282.
